This note sets out measurements from paper doi:10.1101/2023.11.24.568596v1 (biorxiv, 2023).

For one assay, the target named is GSK3B (Homo sapiens, UniProt P49841). To be noted: binder.
A further assay concerns the target T1, MAP2K4 (Homo sapiens, UniProt P45985).
T1 sequence (P45985 1-399): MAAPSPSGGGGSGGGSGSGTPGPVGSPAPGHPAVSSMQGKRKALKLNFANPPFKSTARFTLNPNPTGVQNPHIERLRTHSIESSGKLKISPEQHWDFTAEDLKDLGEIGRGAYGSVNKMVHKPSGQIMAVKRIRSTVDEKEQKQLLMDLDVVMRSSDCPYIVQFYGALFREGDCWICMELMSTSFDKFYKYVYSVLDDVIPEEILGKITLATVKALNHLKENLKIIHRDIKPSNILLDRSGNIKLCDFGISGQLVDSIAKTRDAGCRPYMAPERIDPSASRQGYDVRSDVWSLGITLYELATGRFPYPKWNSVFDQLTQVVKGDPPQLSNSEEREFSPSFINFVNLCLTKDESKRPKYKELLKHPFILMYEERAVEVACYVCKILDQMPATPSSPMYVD
To be noted: binder.

SMILES strings stand for the structures.

GSK3B, sequence (P49841 whole entry): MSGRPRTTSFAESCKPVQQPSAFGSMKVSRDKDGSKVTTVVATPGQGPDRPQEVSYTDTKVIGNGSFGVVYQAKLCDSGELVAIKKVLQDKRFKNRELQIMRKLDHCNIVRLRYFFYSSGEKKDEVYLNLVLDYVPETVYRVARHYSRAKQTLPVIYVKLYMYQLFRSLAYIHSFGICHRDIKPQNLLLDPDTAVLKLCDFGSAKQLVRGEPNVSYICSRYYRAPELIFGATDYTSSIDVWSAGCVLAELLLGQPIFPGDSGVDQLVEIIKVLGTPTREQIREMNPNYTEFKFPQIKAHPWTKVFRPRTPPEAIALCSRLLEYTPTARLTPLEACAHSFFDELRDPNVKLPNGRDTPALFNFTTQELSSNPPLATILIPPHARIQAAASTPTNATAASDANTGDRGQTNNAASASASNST

For `Cc1cccc(-c2ccc(-c3cc4cnc(NCCCc5ccc(N)cc5)nc4n(CCCCN)c3=O)c(Cl)c2)n1` [compound 25, 8-(4-Aminobutyl)-2-((3-(4-aminophenyl)propyl)amino)-6-(2-chloro-4-(6-methylpyridin-2-yl)phenyl)pyrido[2,3-d]pyrimidin-7(8H)-one], the “ΔTm 25” value on GSK3B turned out to be 3.8 °C; at MAP2K4 it was 7.9 °C.
For the compound `Cc1cccc(-c2ccc(-c3cc4cnc(NC(CO)CO)nc4n(CCCCN)c3=O)c(Cl)c2)n1` [compound 24, 8-(4-Aminobutyl)-6-(2-chloro-4-(6-methylpyridin-2-yl)phenyl)-2-((1,3-dihydroxypropan-2-yl)amino)pyrido[2,3-d]pyrimidin-7(8H)-one], the “ΔTm MR24 (24)” value came to 0.0 °C on GSK3B and 5.0 °C at MAP2K4.
As for `CNc1ncc2cc(-c3ccc(-c4cccc(C)n4)cc3Cl)c(=O)n(C[C@H]3CC[C@H](N)CC3)c2n1` [compound 23, 23], the “ΔTm 23” value was determined as 1.7 °C on GSK3B and 8.2 °C at MAP2K4.
As to `Cc1cccc(-c2ccc(-c3cc4cnc(NCCCN5CCOCC5)nc4n(CCCCN)c3=O)c(Cl)c2)n1` [compound 26, MR26], the “ΔTm MR26 (26)” value on GSK3B stood at 0.8 °C; at MAP2K4 it was 5.6 °C.
`CNc1ncc2cc(-c3ccc(-c4cccc(C)n4)cc3Cl)c(=O)n(CCC3CCNCC3)c2n1` [compound 22, 6-(2-Chloro-4-(6-methylpyridin-2-yl)phenyl)-2-(methylamino)-8-(2-(piperidin-4-yl)ethyl)pyrido[2,3-d]pyrimidin-7(8H)-one]: the “ΔTm 22” value on GSK3B is 1.3 °C; on MAP2K4 it was 6.1 °C.
For `CNc1ncc2cc(-c3ccc(-c4cccc(C)n4)cc3Cl)c(=O)n(CCCCN)c2n1` [compound 20, MRLW5], the “ΔTm MRLW5 (20)” value was 1.8 °C at GSK3B and 7.7 °C on MAP2K4.
